The test system of experiment [1] is DBH. Kind of experiment: in vivo DBH inhibition, heart dopamine level in spontaneously hypertensive rats. As to conditions: 50 mg/kg, IP, 6 hours post dose in SHR's; Control 0.015 ± .002; p < .001. As to the method:
The compounds of this invention may also be tested for their in vivo DBH inhibiting property according to the procedure of Felice, Felice and Kessinger, J. Neurochem., 31, 1461-1465 (1978) wherein the effects on peripheral dopamine and norepinephrine levels are determined. In this test spontaneously hypertensive rats are dosed (i.p.) at 50 mg per kilogram of body weight and sacrificed six hours later. Average results, expressed in micrograms of dopamine (DA) per gram of heart tissue are determined with the difference between the control and the treated rats being the in vivo (DBH) inhibitory effect of the test compound.

Experiment [2] addresses T1, dopamine beta-hydroxylase (DBH) (Bos taurus, UniProt P15101).
T1 sequence (P15101 1-610): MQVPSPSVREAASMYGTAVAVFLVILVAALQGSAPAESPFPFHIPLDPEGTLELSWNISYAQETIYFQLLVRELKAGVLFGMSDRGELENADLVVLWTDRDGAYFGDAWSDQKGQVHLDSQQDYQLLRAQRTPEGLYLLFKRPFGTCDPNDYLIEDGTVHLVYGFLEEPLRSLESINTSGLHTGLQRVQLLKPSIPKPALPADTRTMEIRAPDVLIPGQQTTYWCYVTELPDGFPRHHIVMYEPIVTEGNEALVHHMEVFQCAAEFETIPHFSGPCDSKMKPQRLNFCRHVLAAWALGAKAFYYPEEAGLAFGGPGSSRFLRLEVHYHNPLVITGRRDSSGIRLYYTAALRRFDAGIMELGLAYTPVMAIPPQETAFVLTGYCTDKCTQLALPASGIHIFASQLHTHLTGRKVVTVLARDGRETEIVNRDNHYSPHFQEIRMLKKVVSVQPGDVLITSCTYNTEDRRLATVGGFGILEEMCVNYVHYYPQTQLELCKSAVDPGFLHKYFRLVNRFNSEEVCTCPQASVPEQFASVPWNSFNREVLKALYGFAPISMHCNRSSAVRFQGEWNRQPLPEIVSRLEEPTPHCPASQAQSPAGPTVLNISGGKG
Briefly: in vitro inhibition of dopamine beta-hydroxylase (conversion of tyramine to octopamine, oxygen uptake by polarographic electrode). The class given is biochemical. As to conditions: pH 5, 20-40° C, preferably 37° C. The procedure: The DBH inhibitory compounds of this invention can readily be determined in vitro by standard and well known procedures for assaying conversion of tyramine to octopamine in the presence of dopamine beta-hydroxylase (DBH). Enzymatic oxygenation by DBH is determined in aqueous solution in the presence of molecular oxygen, an electron donor such as ascorbate, and the necessary cofactors for the enzyme at pH of 5 and a temperature of 20°-40° C., preferably 37° C. The test compound is added at the desired concentration, and the system is incubated. Activity is determined by measuring the oxygen uptake using a polarographic electrode and an oxygen monitor by the method of S. May, et al., J. Biol. Chem. 256, 2258 (1981). Inhibition is given in molar concentration of compound at which DBH activity was halved (IC50) when the test compounds were tested according to the above described procedure. The IC50 (expressed in micromolar units) data of some of the compounds of this invention are expressed in Table I.

The subject of experiment [3] is spontaneously hypertensive rats (SHR's). Briefly: in vivo antihypertensive effect, blood pressure in spontaneously hypertensive rats. As to conditions: 50 mg/kg, IP, Mean Difference ± Standard Deviation. As to the method:
The ability of the compounds of this invention to lower blood pressure can be determined in vivo using spontaneously hypertensive rats (SHR's) according to standard and well known procedures. The test compound is administered intraperitoneally (ip) to rats and the blood pressure monitored continuously. Since DBH is a major enzyme in the synthetic pathway of the catecholamines, it would be expected that the presence of an inhibitor would act to decrease the amount of catecholamines produced, and thereby have an antihypertensive effect. The results of the testing for this antihypertensive effect are shown in Table I (MBP is mean blood pressure).

As a reminder, the IC50 is the concentration that inhibits the measured activity by half. A low value points to higher potency. Take `S=c1[nH]ccn1CCc1cccs1` [Compound 1, 1,3-Dihydro-1-[2-(2-thienyl)ethyl]-2H-imidazole-2-thione]: the “Heart DA (dopamine per gram of heart tissue), treated” value in experiment [1] is 0.038 ± .003 µg/g. Besides, the IC50 in experiment [2] worked out at 0.12 µM. In addition, the “Max Change MBP (mean blood pressure)” value in experiment [3] is given as -45 ± 17 mmHg.
In experiment [2], `Sc1nccn1CCCc1cccs1` [Compound 2, 1,3-Dihydro-1-[3-(2-thienyl)propyl]-2H-imidazole-2-thione] registered an IC50 of 1.86 µM.

For the origin of these results see US5057613A, “Novel thione dopamine beta hydroxylase inhibitors” (Merrell Dow Pharmaceuticals, priority 1987, dated 1991).
